Values of other authors in patent US20060128641A1, “Levamisole, avermectins or similar in pyrrolidone solvent” (priority 2002, published 2006).

How the values were obtained:
[1] = previously found
Cooperia = conditions: background table, cattle parasites
Ostertagia = conditions: background table, cattle parasites
[2] = background

c1ccc([C@H]2CN3CCSC3=N2)cc1 [Levamisole]
pH required for stability [1]: less than 4
Cooperia Efficacy (Cooperia): Good
Ostertagia Efficacy (Ostertagia): Poor
solubility in water [2]: water soluble
